These results are taken from article PMC8474115 (Journal of Medicinal Chemistry, 2021).

For one series, the target named is T1, 5-HT3R (Cavia porcellus, UniProt O70212).
T1 sequence (O70212 20-490): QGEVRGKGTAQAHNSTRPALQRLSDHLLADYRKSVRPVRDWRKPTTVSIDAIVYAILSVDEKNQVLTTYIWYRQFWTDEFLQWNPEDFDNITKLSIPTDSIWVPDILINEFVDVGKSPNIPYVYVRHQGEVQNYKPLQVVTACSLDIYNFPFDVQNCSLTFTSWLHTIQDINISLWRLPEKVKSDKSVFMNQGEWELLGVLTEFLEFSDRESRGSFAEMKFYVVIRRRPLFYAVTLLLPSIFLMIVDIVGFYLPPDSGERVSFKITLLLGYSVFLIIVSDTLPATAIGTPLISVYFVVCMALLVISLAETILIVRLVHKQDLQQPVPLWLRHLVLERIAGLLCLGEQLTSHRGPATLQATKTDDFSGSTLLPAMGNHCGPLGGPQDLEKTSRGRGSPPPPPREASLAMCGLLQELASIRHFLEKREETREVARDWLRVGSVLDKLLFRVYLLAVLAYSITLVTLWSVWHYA
Particulars: for antagonist effect: percent inhibition of response to 5-HT 3 μM (contraction of guinea pig ileum); for functional classification at 5-HT3R: guinea pig ileum contraction.

The target of the next series is h5-HT1A (Homo sapiens, UniProt P08908). Particulars: 5-HT1AR.
h5-HT1A, sequence (P08908 whole entry): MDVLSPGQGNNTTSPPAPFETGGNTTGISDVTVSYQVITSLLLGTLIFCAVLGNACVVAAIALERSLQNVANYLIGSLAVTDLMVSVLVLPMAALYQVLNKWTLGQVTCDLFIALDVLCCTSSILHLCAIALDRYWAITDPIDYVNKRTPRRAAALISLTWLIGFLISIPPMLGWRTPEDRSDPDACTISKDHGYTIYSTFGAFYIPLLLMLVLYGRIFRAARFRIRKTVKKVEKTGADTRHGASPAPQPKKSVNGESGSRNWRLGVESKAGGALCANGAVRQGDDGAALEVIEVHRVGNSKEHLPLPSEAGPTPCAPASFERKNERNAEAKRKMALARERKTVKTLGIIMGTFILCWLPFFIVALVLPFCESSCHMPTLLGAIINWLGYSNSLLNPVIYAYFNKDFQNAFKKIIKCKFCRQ
Another series concerns the target h5-HT2AR (Homo sapiens, UniProt P28223). Particulars: 5-HT2AR.
The target in the next series is h5-HT7b (Homo sapiens, UniProt P34969). Particulars: 5-HT7R.
h5-HT7b, sequence (P34969 1-432 limits assumed): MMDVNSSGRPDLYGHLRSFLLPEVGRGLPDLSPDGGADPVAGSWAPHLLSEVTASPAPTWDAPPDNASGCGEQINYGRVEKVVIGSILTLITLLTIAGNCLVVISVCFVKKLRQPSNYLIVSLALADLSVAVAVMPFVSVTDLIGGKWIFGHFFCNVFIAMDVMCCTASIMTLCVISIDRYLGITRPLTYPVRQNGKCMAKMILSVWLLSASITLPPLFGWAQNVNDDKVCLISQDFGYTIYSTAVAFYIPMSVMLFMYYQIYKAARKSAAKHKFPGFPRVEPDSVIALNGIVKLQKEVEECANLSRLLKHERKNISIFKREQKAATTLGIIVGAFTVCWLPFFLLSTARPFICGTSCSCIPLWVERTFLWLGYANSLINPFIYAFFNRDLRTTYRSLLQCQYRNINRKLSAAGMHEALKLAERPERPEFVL
For the next series, the target named is hD2L (Homo sapiens, UniProt P14416). Particulars: D2R.
hD2L, sequence (P14416 whole entry): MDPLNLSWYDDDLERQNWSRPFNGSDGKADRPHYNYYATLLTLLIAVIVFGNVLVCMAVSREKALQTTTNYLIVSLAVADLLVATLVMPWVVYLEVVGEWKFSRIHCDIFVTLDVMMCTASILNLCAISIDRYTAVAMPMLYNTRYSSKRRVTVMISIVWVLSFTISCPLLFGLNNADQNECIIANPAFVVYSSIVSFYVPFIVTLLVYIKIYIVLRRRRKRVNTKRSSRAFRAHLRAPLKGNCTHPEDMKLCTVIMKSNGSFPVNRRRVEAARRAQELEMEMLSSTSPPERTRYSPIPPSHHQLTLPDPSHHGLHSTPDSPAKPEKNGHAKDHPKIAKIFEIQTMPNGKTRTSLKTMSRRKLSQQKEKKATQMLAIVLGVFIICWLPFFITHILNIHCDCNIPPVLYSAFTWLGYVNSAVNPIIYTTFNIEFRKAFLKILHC
The target in series [1] is T2, h5-HT6R (Homo sapiens, UniProt P50406).
T2 sequence (P50406 whole entry): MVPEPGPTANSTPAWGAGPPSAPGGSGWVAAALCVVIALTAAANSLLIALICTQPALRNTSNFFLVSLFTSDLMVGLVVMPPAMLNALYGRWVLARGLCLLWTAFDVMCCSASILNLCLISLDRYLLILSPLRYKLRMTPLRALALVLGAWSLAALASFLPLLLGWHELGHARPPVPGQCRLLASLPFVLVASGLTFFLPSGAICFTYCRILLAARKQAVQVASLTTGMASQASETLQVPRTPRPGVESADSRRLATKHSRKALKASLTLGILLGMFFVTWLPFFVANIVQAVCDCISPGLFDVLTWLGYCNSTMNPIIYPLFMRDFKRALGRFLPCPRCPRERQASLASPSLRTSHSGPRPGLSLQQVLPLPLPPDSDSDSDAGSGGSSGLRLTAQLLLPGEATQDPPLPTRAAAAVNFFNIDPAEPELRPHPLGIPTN
Description: (§1) For membrane preparation, cells after reaching 90% confluence, were washed with phosphate-buffered saline (PBS), and pelleted by centrifugation (200 × g) in PBS containing 0.1 mM EDTA and 1 mM dithiothreitol.
(§2) The total reaction volume was 200 μL. The incubation process was terminated by filtration through UniFilter-96 (PerkinElmer) plates with the FilterMate Universal Harvester (PerkinElmer, #C961962), and radioactivity retained on the filters was quantified on a MicroBeta counter for radiometric detection (PerkinElmer). […] To evaluate the level of nonspecific signal 10 μM of 5-HT for 5-HT1AR and 5-HT7R, 20 μM of mianserin for 5-HT2AR, 10 μM of methiothepine for 5-HT6R and 10 μM of haloperidol for D2LR were used. […] The acquired results were presented as the mean of at least two independent experiments.
In series [2] the target is T2, h5-HT6R. The series is described as follows: Inhibition of 5-CT-induced cAMP production in 1321N1 cells expressing h5-HT6R. It counts as cell-based. More on the design: host or cells: 1321N1. Particulars: for Kb: cAMP; for antagonist effect: 10^–6 M, percent inhibition of control agonist response. A general note: Cyclic AMP is a second messenger, typically raised through Gs and lowered through Gi signalling.

Series [3] concerns male Sprague–Dawley rats.
Description: (§3) Both spontaneous and PCP-induced locomotor activity were measured automatically in Opto-Varimex-4 Auto-Tracks (Columbus Instruments, Ohio) located in sound-attenuated and ventilated boxes. The Auto-Track System sensed the motion with a grid of infrared photocells (16 beams per axis) surrounding the arena.
(§4) Following 30 min of spontaneous activity measurement, the animals were removed from the boxes, injected with phencyclidine hydrochloride (PCP) at a dose of 5 mg/kg (SC), and then PCP-induced locomotor activity was measured for 120 min.
(§5) The measurements (30 min) preceding PCP administration indicate drug-induced effects on spontaneous locomotor activity. The second period (measured in the same animals at 0-120 min following PCP administration) indicates drug-induced alteration of PCP-induced hyperactivity.
(§6) Mixed-design two-way ANOVA with treatment(s) as between-subject factor and time as repeated measures factor on raw distance data, and separate one-way or two-way ANOVAs (on AUC data) followed by Dunnett’s multiple comparison, LSD or Tukey’s post hoc tests as well as analyses of contrast coefficients (Statistica 12 for Windows, IBM SPSS ver 26 for Mac) were used to assess the effects of compounds on activity.
Series [4] has as its system male Sprague–Dawley rats. Particulars: AUC −25 to 0 min before PCP.
Description: as §3, §4, §5, §6
Another series addresses h5-HT3R (Homo sapiens, UniProt P46098). Particulars: inhibition of inward currents in response to 5-HT (EC80).
[5] abbreviates: HEK cells stably expressing h5-HT6R.

Molecules are shown by their SMILES. Where a name gives a salt, the structure may show the parent alone. Read-outs that look alike come from different tables or passages of the source.

h5-HT2AR, sequence (P28223 whole entry, looked up): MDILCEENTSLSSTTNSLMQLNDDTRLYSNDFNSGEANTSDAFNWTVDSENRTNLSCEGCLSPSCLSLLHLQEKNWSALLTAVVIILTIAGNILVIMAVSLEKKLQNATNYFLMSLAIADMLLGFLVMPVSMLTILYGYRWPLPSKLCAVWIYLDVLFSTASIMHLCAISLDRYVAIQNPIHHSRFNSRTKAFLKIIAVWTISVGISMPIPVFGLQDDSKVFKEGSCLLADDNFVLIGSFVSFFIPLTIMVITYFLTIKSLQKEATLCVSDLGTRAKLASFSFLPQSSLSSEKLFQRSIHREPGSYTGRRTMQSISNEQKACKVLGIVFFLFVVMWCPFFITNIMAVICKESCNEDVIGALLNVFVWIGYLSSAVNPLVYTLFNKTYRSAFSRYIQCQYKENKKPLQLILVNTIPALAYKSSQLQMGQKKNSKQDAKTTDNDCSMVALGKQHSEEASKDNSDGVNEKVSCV
h5-HT3R, sequence (P46098 24-478): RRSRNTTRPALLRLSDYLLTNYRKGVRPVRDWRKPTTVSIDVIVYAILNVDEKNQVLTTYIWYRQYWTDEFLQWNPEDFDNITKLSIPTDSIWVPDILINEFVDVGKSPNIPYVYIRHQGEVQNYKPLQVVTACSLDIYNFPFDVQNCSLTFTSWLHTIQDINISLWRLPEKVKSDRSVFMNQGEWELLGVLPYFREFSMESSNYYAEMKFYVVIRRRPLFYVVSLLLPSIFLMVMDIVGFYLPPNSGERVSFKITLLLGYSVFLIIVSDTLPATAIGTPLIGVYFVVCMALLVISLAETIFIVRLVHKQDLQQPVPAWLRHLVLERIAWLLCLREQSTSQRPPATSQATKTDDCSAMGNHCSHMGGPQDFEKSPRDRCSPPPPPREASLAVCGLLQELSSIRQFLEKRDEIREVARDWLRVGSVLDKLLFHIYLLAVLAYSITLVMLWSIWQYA
Description for h5-HT1A: as §1, §2
Description for h5-HT2AR: as §1, §2
Description for h5-HT3R: All recordings were obtained from a holding potential of -60 mV. To establish the baseline response, serotonin was added at the concentration corresponding to its EC80 value. Subsequently, the test compound was characterized in a dose–response protocol at the concentration ranges from 10^–6 to 10^–11 M, with 30 s preincubation, followed by the addition of 5-HT at its EC80 in the presence of the compound for 2 s.
Peak inward currents were measured in response to the serotonin additions in the presence of a single concentration of the compound. Obtained data have been normalized to the baseline peak current induced by the addition of EC80 serotonin for 2 s, according to eq 1 [drawing 4] 1 Received data were analyzed using a four-parameter logistic equation in GraphPad Prism software.
Description for h5-HT7b: as §1, §2
Description for hD2L: as §1, §2

As usually defined, the Ki is a measure of affinity in units of concentration, obtained from inhibition or displacement. With `Cc1cccc(S(=O)(=O)n2ccc3c(N4CCNCC4)nc4ccccc4c32)c1` [Compound 20, 1-[(3-Methylphenyl)sulfonyl]-4-(piperazin-1-yl)-1H-pyrrolo[3,2-c]quinoline dihydrochloride], the antagonist effect is given as 20% at 5-HT3R (30 nM) and 40% at 5-HT3R (100 nM). The Ki on h5-HT1A was determined as 0.76 µM; at h5-HT2AR, 4.63 µM; on h5-HT7b, 4.14 µM; on hD2L, 2.16 µM.
As for `O=S(=O)(c1cccc(Cl)c1)n1ccc2c(N3CCNCC3)nc3ccccc3c21` [Compound 18, 1-[(3-Chlorophenyl)sulfonyl]-4-(piperazin-1-yl)-1H-pyrrolo[3,2-c]quinoline dihydrochloride], the antagonist effect on 5-HT3R (100 nM) is recorded as 11%; at 5-HT3R (300 nM) it was 72%. For the same molecule, the Ki at h5-HT1A is 0.773 µM; on h5-HT2AR, 1.67 µM; on h5-HT7b it was 1.79 µM; on hD2L, 1.34 µM.
As for `CN1CCN(c2nc3ccccc3c3[nH]ccc23)CC1` [Compound 5d, 4-(4-Methylpiperazin-1-yl)-1H-pyrrolo[3,2-c]quinoline], the “functional classification at 5-HT3R” value on 5-HT3R is “agonist”. The same molecule registered a Ki on h5-HT6R [1] of 0.245 µM. Also, the Kb on h5-HT6R [2] (Kb) was greater than 10 µM.
In the case of `O=S(=O)(c1ccccc1Br)n1ccc2c(N3CCNCC3)nc3ccccc3c21` [Compound 15, 1-[(2-Bromophenyl)sulfonyl]-4-(piperazin-1-yl)-1H-pyrrolo[3,2-c]quinoline dihydrochloride], the affinity on h5-HT6R [1] (setting [5]), expressed as Ki, was 0.013 µM. The molecule also had an antagonist effect on h5-HT6R [2] of 69%.
Turning to `O=S(=O)(c1ccc(F)cc1)n1ccc2c(N3CCNCC3)nc3ccccc3c21` [Compound 22, 1-[(4-Fluorophenyl)sulfonyl]-4-(piperazin-1-yl)-1H-pyrrolo[3,2-c]quinoline dihydrochloride], the antagonist effect on 5-HT3R (300 nM) is 48 (300 nM) %; on h5-HT6R [2], 72%. The Ki at h5-HT6R [1] (setting [5]) was determined as 0.018 µM.
`COc1ccc(S(=O)(=O)Nc2cc(Cl)cc(Cl)c2OC)cc1N1CCNCC1` [SB399885]: the “effect on PCP-induced hyperactivity” value is “enhances PCP-induced hyperactivity compared with vehicle” in the series with male Sprague–Dawley rats [3] (SB399885 1 mg/kg IP, AUC post-PCP vs vehicle); “did not affect PCP-induced hyperactivity” in the series on male Sprague–Dawley rats [3] (SB399885 alone IP, doses up to 9 mg/kg, AUC 1st and 2nd hour post-PCP). Also, the “effect on spontaneous activity” value in the series on male Sprague–Dawley rats [4] (SB399885 1 mg/kg IP) is listed as “neither compound affected spontaneous activity”; in the series with male Sprague–Dawley rats [4] (SB399885 9 mg/kg IP), “sedative-like action”.
`O=S(=O)(c1ccccc1)n1ccc2c(N3CCNCC3)nccc21` [II, reference compound] had a Ki at h5-HT6R [1] of 0.006 µM. In addition, on h5-HT6R [2] (Kb), the Kb was found to be 0.001 µM.
A word on the IC50: it is the concentration needed to halve the response being measured. Low values mean greater potency, high ones weaker potency. Molecule `O=C1c2cccc3c2[C@H](CCC3)CN1[C@@H]1CN2CCC1CC2` [palonosetron] had an IC50 against h5-HT3R of 0.0017 µM.
Regarding `CC(C)c1ccc(S(=O)(=O)n2ccc3c(N4CCNCC4)nc4ccccc4c32)cc1` [Compound 24, 1-[(4-iso-Propylphenyl)sulfonyl]-4-(piperazin-1-yl)-1H-pyrrolo[3,2-c]quinoline dihydrochloride], the antagonist effect at 5-HT3R (300 nM) was 38 (300 nM) %; at h5-HT6R [2], 65%. On h5-HT6R [1] (setting [5]), this molecule showed a Ki of 0.014 µM.
For `c1ccc2c(c1)nc(N1CCNCC1)c1cc[nH]c12` [Compound 5e, 4-(Piperazin-1-yl)-1H-pyrrolo[3,2-c]quinoline], the “functional classification at 5-HT3R” value on 5-HT3R is reported as “partial agonist”. This molecule came in with a Ki at h5-HT6R [1] of 0.757 µM. For the same molecule, the Kb at h5-HT6R [2] (Kb) is greater than 10 µM.
The molecule `O=S(=O)(c1ccc(C(F)(F)F)cc1)n1ccc2c(N3CCNCC3)nc3ccccc3c21` [Compound 23, 1-{[4-(Trifluoromethyl)phenyl]sulfonyl}-4-(piperazin-1-yl)-1H-pyrrolo[3,2-c]quinoline dihydrochloride] showed a Ki on h5-HT6R [1] (setting [5]) of 0.034 µM. This molecule returned an antagonist effect at h5-HT6R [2] of 63%.
As to `Cc1nccn1CC1CCc2c(c3ccccc3n2C)C1=O` (centres unmarked) [ondansetron, reference compound], the pA2 result on 5-HT3R (antagonist potency, Schild analysis, guinea pig ileum) is listed as “pA2 = 7.11 ± 0.12”. Moreover, in the series on male Sprague–Dawley rats [4] (ondansetron 0.5 mg/kg IP), the “effect on spontaneous activity” value is recorded as “neither compound affected spontaneous activity”. For the same molecule, on h5-HT6R [2] (read-out: Kb), the Kb turned out to be 58.2 µM.
